Experiments:
HNSCC cell lines = experiment: Sensitivity of HNSCC cell lines to EGFR-TKi after silencing EPLIN; assay type: cell-based; conditions: siRNA silencing of EPLIN; FIG. 6C
HNSCC patient samples = experiment: Cancer drug sensitivity testing on nonselected HNSCC patient samples (Misvik Oy); assay type: cell-based; conditions: for drug sensitivity: EPLIN positive HNSCC, more than 160 cancer drugs tested, all results not shown
Text: Our proof-of-concept study featured testing the sensitivity of more than 160 cancer drugs on nonselected HNSCC patient samples using an internationally validated method (Misvik Oy, Turku, Finland).

| Structure (SMILES) | sensitivity of HNSCC cells to the drug on silencing EPLIN expression (HNSCC cell lines) | drug sensitivity (HNSCC patient samples) | function as precision therapy (HNSCC patient samples; several EPLIN positive HNSCC patients, FIG. 7A) | effect relative to the other tested EGFR-TKis (HNSCC cell lines) |
| --- | --- | --- | --- | --- |
| CNC(=O)CN1CCC(Oc2cc3c(Nc4cccc(Cl)c4F)ncnc3cc2OC)CC1 [AZD8931] | decreases sensitivity | – | – | – |
| C=CC(=O)Nc1cc(Nc2nccc(-c3cn(C)c4ccccc34)n2)c(OC)cc1N(C)CCN(C)C [AZD9291] | decreases sensitivity | – | – | – |
| C=CC(=O)Nc1cc2c(Nc3ccc(F)c(Cl)c3)ncnc2cc1OCCCN1CCOCC1 [Canertinib] | – | highest sensitivity | – | – |
| C#Cc1cccc(Nc2ncnc3cc(OCCOC)c(OCCOC)cc23)c1 [Erlotinib] | decreases sensitivity | highest sensitivity | proven to function as precision therapy | best result |
| COc1cc2ncnc(Nc3ccc(F)c(Cl)c3)c2cc1OCCCN1CCOCC1 [Gefitinib] | – | highest sensitivity | – | – |
| CCOc1cc2ncc(C#N)c(Nc3ccc(OCc4ccccn4)c(Cl)c3)c2cc1NC(=O)/C=C/CN(C)C [Neratinib] | decreases sensitivity | – | – | – |

Reference: patent publication US20230136717A1, “EPLIN AS A BIOMARKER FOR CANCER” (Turun yliopisto, priority 2020, published 2023)
